Results on 5 molecules are retold here after US20210145806A1, “Methods of Treating Brain Cancer and Related Diagnostic Methods” (Emory University, priority 2019, published 2021).

Test [1] concerns SmoA1 murine SHH-activated MB organotypic slice culture. As to the kind of experiment: Murine MB organotypic slice culture (OSC), cell death by cleaved caspase 3 staining. As to conditions: 24 h treatment; for concentration giving significant increase in cell death (CC3 standardized to DAPI): compared to control; for cell death (CC3 staining), result in words: relative to vehicle control.

The test system of test [2] is patient-derived non-WNT/SHH MB OSC. Description: Patient-derived MB OSC, cell death by CC3 staining. It is filed as cell-based, human. As to conditions: relative to vehicle controls. Here is the method: Ex vivo, cultures can be used to evaluate drug effects on murine MB tumor cells in their microenvironment. Experiments were performed to determine whether OSC could be used as a “precision medicine” technique in medulloblastoma, e.g., whether biopsy sample from either a newly diagnosed or relapsed medulloblastoma patient could be directly obtained in the operating room, transferred to the lab, and OSCs generated and tested per the protocol, with readout of the efficacy of potential treatments within 3 days. After obtaining fresh tumor tissue from a newly diagnosed patient with a cerebellar tumor, an OSC assay using this patient-derived medulloblastoma specimen was performed. Four tumor slices were treated with vehicle (DMSO or PBS) and 6 tumor slices were treated with WP1066, fisetin, and cisplatin as positive control. […] Therefore this assay can be used at the time of diagnosis, indicating the feasibility of OSC for use in a personalized medicine based testing approach (FIG. 5C) in pediatric brain tumors. Later the neuropathology report confirmed isochromosome 17q in the specimen without MYC or MYCN amplification consistent with a non-WNT/SHH MB.

The subject of test [3] is Group 3-like D556 MB cells. As to the kind of experiment: Proliferation of Group 3-like MB cells.
For test [4], the system named is MB tumor stem-like cells (nestin-positive) in SmoA1 OSCs. As to the kind of experiment: SmoA1 OSC, CC3 and nestin co-staining (death of tumor stem-like cells). It is filed as cell-based, mouse. The procedure:
DAPI=nuclear stain, DMSO=vehicle. Treatment of human MB cells and SmoA1 OSCs with WP1066 in combination with fisetin further enhances the inhibition of cell proliferation in vitro induction of tumor cell death diffusely ex vivo, but synergistically kills the tumor stem-like cell population specifically.
Given that STA 3 and YB-1 expression colocalized to the cancer stem cell-like cells of the perivascular niche environment, experiments were performed to determine whether combined treatment with these inhibitors, fisetin and WPHH66, leads: to increased tumor cell and/or tumor stem cell like cell death. The effect of combination treatment was evaluated in the in vitro proliferation and colony formation assays. […] Next, experiments were performed to determine whether this effect was more pronounced in the stem cell compartment, where YB-1 and STAT3 are most highly expressed. SmoA1 MB ex vivo brain slices were treated with WP1066, fisetin, or combined treatment thereof. The slices were immunostained for the tumor stem-like cell marker nestin and the cell death marker CC3 to quantify the amount of cell death in the tumor stem-like cells.

Setting [5] is: Homo sapiens, read-out: IC50, inhibition of proliferation, D556.

Entries after “also recorded” stand apart in the source; their conditions may differ. Read-outs that look alike come from different tables or passages of the source.

For `O=c1c(O)c(-c2ccc(O)c(O)c2)oc2cc(O)ccc12` [fisetin, 2-(3,4-dihydroxyphenyl)-3,7-dihydroxy-4H-chromen-4-one], the “concentration giving significant increase in cell death (CC3 standardized to DAPI)” value in test [1] was greater than 4 µM. Also, the “cell death (CC3 staining), result in words” value (“cell death (CC3 staining)” below) in test [1] is given as “induces marked tumor cell death; also recorded: dose-dependent increase in cell death”; in test [2], “Increase in cell death”; in test [2] (listed as Fisetin), “induced cell death”. Moreover, the IC50 in test [3] (setting [5]) was 3600 nM. In addition, the “percentage of CC3/nestin-positive cells (dead nestin-positive cells)” value in test [4] is recorded as 1.6%.

In the case of `N.N.[Cl][Pt][Cl]` [cisplatin], in test [1], the “concentration giving significant increase in cell death (CC3 standardized to DAPI)” value turned out to be 2 µM. In addition, the “cell death (CC3 staining)” value in test [2] is on record as “Increase in cell death”.

With `CC(NC(=O)C(C#N)=Cc1cccc(Br)n1)c1ccccc1` (stereo not shown) [WP1066, 3-(6-bromopyridin-2-yl)-2-cyano-N-(1-phenylethyl)acrylamide], the “concentration giving significant increase in cell death (CC3 standardized to DAPI)” value in test [1] is listed as “greater than 1.5 μM”. Further, the “cell death (CC3 staining)” value in test [1] was “significantly increased cell death; also recorded: induces marked tumor cell death; also recorded: dose-dependent increase in cell death”; in test [2] it was “induced cell death; also recorded: Increase in cell death”. Besides, the IC50 in test [3] (setting [5]) came out at 1500 nM; in test [3] (read-out: IC50, inhibition of proliferation, D556), 1200 nM. Moreover, the “percentage of CC3/nestin-positive cells (dead nestin-positive cells)” value in test [4] was 1.4%.

As for `Nc1nc(=S)c2[nH]cnc2[nH]1` [6-thioguinine], the “cell death (CC3 staining)” value in test [1] was “minimal increase in cell death”.

On to `CS(=O)(=O)OCCCCOS(C)(=O)=O` [Busulfan], for which the “cell death (CC3 staining)” value in test [1] is recorded as “minimal increase in cell death”.
